Measured values taken from patent EP3009422A1, “Photo-switchable sulfonylureas and their uses” (Ludwig-Maximilians-Universität München, priority 2014, dated 2016).

Columns and labels:
mouse islets = test: Calcium imaging (fMCI) of beta cell activity in intact mouse islets; assay type: cell-based; conditions: mouse islets
Method: Male and female CD1 and C57BL6 mice (8-20 weeks) were maintained in a specific pathogen-free facility under a 12h light-dark cycle with ad libitum access to water and food. Animals were euthanized using a schedule-1 method and pancreatic islets isolated by collagenase digestion. All procedures were regulated by the Home Office according to the Animals (Scientific Procedures) Act 1986 of the United Kingdom (PPL 70/7349), and study approval granted by the Animal Welfare and Ethical Review Body (AWERB) of Imperial College. No randomization was used for animal experimentation, since mice were only used as tissue donors.
(§1) Islets were loaded for 30-45 min in fluo2-AM (10 µM) or for 2-5 min with X-Rhod 1 (5 µM) diluted with a mixture of DMSO (0.01%, wt/vol) and pluronic acid (0.001%, wt/vol; all Invitrogen) in a bicarbonate buffer containing in mM: 120 NaCl, 4.8 KCl, 1.25 NaH2PO4, 24 NaHCO3, 2.5 CaCl2, 1.2 MgCl2 and 5 D-glucose. fMCI was performed using a Zeiss Axiovert M200 fitted with a Nipkow spinning-disk head (Yokogawa CSU-10) and a 10x/0.3NA objective adjusted for chromatic aberration (EC Plan-Neofluar, Zeiss). Pulsed excitation (frequency = 0.5 Hz; exposure = 263 ms) was delivered at 491 nm and emitted signals recorded at 500-550 nm with a back-illuminated 16-bit EM-CCD camera (ImageEM 9100-13; Hamamatsu). During recording, islets were maintained at 35-36 °C in the presence of 50 µM JB253 using a custom-manufactured perfusion and heating system (Digital Pixel). Drugs were introduced through the perfusion system at the indicated time points and concentrations. Violet light was delivered by a 405 ± 5 nm laser coupled to the side port of the microscope and configured to fill the back of the objective with light using an Optospot (Cairn Research). Blue light was delivered using 440 ± 5 nm and 491 ± 5 nm diode lasers controlled by a laser merge module (Spectral Applied Research) to allow simultaneous exposure and acquisition. For single islet targeting, a 473 ± 5 nm laser was coupled to a custom-manufactured dichroic array (Cairn Research), allowing user-directed steering of a collimated laser spot across the field of view. Signals were normalized using F/Fmin where F is fluorescence at a given timepoint and Fmin is minimum fluorescence.
(§2) Data distribution was determined using the D'Agostino omnibus test. Non-multifactorial pairwise comparisons were made using either the Student's t-test. Interactions between multiple treatments were assessed using one-way ANOVA followed by pairwise comparisons using Bonferroni's post-hoc test. Effect sizes in islets/cells are usually sufficiently large that multiple animals/independent replication is a more important determinant of power in studies requiring statistical comparison. Non-linear regression was used to calculate the EC50 of normalized and log-transformed concentration-response curves. For [3H]-glibenclamide displacement assays, data points were fitted to the Hill equation before calculation of the halfmax value. In all cases, analysis was performed using Graphpad Prism (Graphpad Software) and IgorPro, and experimental numbers reported as independent biological replicates. No animals or data were excluded from the analysis and results were considered significant at P<0.05.

human islets = test: Calcium imaging in isolated human islets of Langerhans; assay type: cell-based; conditions: human islets from three donors, 440 nm
Method: Human islets were isolated from deceased heart-beating donors (n = 3) at transplantation facilities in Pisa and Edmonton with the relevant national and local ethical permissions, including consent from next of kin where required, and cultured in RPMI supplemented with 5.5 mM D-glucose, 10% foetal calf serum (FCS), 100 U penicillin, 100 µg streptomycin and 0.25/µl fungizone (37 °C, 5% CO2). All studies involving human tissue were approved by the National Research Ethics Committee (NRES) London (Fulham), REC # 07/H0711/114.
as §1, with “For single islet targeting, a 473 ± 5 nm laser was coupled to a custom-manufactured dichroic array (Cairn Research), allowing user-directed steering of a collimated laser spot across the field of view.” left out

Epac2A = test: Epac2-camps FRET imaging in HEK293t cells; assay type: cell-based; conditions: HEK293t cells expressing full length Epac2-camps; JB253 as cis-JB253 (excitation 440 nm)
Method: For EPAC2 imaging, HEK293t were transfected with the full length construct for […] containing the cAMP and sulfonylurea binding domains (obtained from Prof. […] Excitation was delivered at 440 nm and emitted signals captured using […] filters. FRET was calculated as the ratio of Cerulean (CFP):Venus (YFP) fluorescence. Signals were normalized using R/R0 where R is the ratio at a given timepoint and R0 is the minimum ratio.

[1] = pKa measurement, absorbance-based platereader assay; assay type: physicochemical; conditions: DMSO/buffer mixture (1/1), pH 3.33-6.33, sigmoidal fitting, n = 3 assays
Method: Extinction coefficients were measured on a BMG Labtech Omega Series FLUOstar microplate reader with clear flat-bottom white 96 wellplates by full spectra acquirement in low K^+ external bath buffer (containing in mM: 3 KCl, 118 NaCl, 25 NaHCO3, 2 CaCl2, 1 MgCl2, 10 HEPES; NaOH to pH 7.4). All JB253-containing solutions (dilution series, n = 4: 10 nM; 100 nM; 1 µM; 10 µM; 25 µM; 50 µM) were background substracted and fitted with a linear slope. […] Full absorbance spectra (280-800 nm) were acquired and background subtracted before spectral differences were calculated. The total change of maximal positive and maximal negative difference was calculated and plotted against pH. Sigmoidal fit of the obtained plot gave access to the pKa.

islets = test: Cytotoxicity assay (calcein-AM / propidium iodide) in islets; assay type: cell-based; conditions: 1 hr incubation, n = 28 islets from four animals
Method: Islets were incubated with either DMSO or JB253 for 1 hr before staining with 3 µM of calcein-AM (live) and 2.5 µM of propidium iodide (dead). Absorbance/emission was detected at 491/525 nm and 561/620 nm for calcein and PI, respectively. The area of dead:live cells was calculated as a unitary ratio and the observer blinded to treatment identity.

SUR1 = target: T1, SUR1 (Rattus norvegicus, UniProt Q09429); test: [3H]-glibenclamide displacement radioassay in SUR1-expressing HEK293t cells; assay type: binding
T1 construct: expressed in transfected cells; host or cells: HEK293t
T1 sequence (Q09429 whole entry): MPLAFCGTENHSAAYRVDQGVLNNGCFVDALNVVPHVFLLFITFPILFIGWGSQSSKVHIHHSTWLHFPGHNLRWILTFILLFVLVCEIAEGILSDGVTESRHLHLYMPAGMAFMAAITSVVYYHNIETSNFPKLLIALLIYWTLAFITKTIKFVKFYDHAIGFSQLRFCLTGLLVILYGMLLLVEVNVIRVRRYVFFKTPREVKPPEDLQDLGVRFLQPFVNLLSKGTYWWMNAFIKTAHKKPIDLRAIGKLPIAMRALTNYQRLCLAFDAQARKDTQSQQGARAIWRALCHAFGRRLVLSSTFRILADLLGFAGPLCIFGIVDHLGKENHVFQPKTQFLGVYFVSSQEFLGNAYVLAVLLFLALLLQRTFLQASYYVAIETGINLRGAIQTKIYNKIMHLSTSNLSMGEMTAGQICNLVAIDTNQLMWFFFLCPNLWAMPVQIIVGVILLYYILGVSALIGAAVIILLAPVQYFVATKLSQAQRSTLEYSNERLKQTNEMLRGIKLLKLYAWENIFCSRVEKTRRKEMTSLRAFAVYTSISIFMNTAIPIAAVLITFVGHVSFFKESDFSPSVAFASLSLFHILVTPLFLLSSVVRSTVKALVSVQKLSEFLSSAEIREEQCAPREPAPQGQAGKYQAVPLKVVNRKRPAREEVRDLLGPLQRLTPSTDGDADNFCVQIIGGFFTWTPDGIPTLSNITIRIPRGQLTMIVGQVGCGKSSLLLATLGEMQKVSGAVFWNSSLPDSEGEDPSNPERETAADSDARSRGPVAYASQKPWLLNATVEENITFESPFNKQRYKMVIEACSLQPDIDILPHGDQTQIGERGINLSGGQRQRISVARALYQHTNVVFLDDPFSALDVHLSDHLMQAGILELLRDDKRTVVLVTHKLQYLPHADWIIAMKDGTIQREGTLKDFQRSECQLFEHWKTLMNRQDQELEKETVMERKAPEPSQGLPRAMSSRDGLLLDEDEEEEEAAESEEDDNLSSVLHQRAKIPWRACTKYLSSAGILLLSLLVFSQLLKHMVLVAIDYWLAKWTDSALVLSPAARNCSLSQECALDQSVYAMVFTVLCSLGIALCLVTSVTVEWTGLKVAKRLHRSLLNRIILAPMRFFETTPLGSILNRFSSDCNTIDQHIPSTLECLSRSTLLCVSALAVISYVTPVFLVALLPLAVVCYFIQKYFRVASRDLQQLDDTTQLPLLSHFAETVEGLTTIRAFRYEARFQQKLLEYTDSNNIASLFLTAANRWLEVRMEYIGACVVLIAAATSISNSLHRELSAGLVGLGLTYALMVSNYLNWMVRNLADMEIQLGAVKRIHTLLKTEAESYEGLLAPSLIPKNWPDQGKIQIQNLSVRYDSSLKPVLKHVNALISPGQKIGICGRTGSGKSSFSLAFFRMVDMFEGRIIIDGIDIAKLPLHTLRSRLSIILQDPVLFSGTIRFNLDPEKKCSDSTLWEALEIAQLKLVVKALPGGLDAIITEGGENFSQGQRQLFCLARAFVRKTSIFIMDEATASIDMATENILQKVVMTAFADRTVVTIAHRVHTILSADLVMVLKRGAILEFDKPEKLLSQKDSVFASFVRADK
Method: SUR1-expressing HEK293t cells were harvested and washed twice in assaying buffer containing in mM: 119 NaCl, 4.7 KCl, […], 1.2 KH2PO4, 1.2 MgSO4, 5 NaHCO3, and 20 HEPES, pH 7.4. In a 96-well plate, ∼200,000 cells/well were incubated for 50 min with [3H]-glibenclamide (PerkinElmer) and different concentrations of glimepiride (Sigma-Aldrich) or JB253. Incubation was terminated by rapid filtration through Whatman GF/C filters by means of a Brandel MWXR-96 TI harvester and filters were washed 3 times with ice-cold assay buffer. Radioactivity was counted 6 h after cell and filter lysis in 200 µL Rotiszint EcoPlus (Roth) using a Packard microbeta scintillation counter (PerkinElmer).
as §2

Compound: CCN(CC)c1ccc(/N=N/c2ccc(S(=O)(=O)NC(=O)NC3CCCCC3)cc2)cc1 [JB253, (E)-N-(cyclohexylcarbamoyl)-4-((4-(diethylamino)phenyl)diazenyl)benzenesulfonamide]
- fluo-2-loaded population responding to illumination with synchronous Ca^2+ rises (mouse islets; 50 µM JB253, 405 nm laser, n = 10 recordings): 54%
- responsive X-Rhod-1-loaded cells (mouse islets; 50 µM JB253, 405 nm, n = 3 recordings): 63%
- stimulation of [Ca^2+]i (mouse islets; concentration-response, dark): largely ineffective
- concentration-response curve for glimepiride in the presence of trans-JB253 (mouse islets; saturating concentration (100 µM) of trans-JB253, dark): right-shifted
- X-Rhod1-loaded cells responding with Ca^2+ rises (human islets): ~62%
- ΔR/R0 (decrease in FRET) (Epac2A): 0.064 AU
- pKa [1]: 4.76
- cytotoxicity to islets (necrosis indices, cell death versus DMSO-alone) (islets): did not appear to be cytotoxic
- lower affinity to SUR1 compared to glimepiride (SUR1; [3H]-glibenclamide displacement, unaffected by illumination): 1000 fold
- IC50 (SUR1; displacement of [3H]-glibenclamide, SUR1-expressing HEK293t cells, n = 3, cis-state may relax thermally during washing): 17.6 µM
